Reference: US20180256560A1 (priority 2015, published 2018)
“And” between values parts separate entries of the source, which are not always exact repeats. Equal entries are not always repeated. Where two headings read alike, the source gives them in different places.

Tests used:
[1] = 20 mg/ml nicotine in the formulation; FIGS. 4.4-4.6
Description: Test solutions were prepared from ethanol, de-ionized water, a 20% stock solution of glycerol in de-ionized water, a 5 M NaCl solution and nicotine solutions of 40 mg/ml in either ethanol or de-ionized water. Solutions were analysed for droplet size distributions generated by an eFlow© rapid nebulizer device (PARI GmbH) which was placed at 90° to, and 15 cm from, the laser light path of a Malvern Spraytec particle sizer. A Malvern Spraytec Real Time Droplet Sizer and an Alberta Idealized Throat coupled to an Andersen Cascade Impactor (AIT/ACI) were also used to determine droplet size.
The surface to volume ratio of the droplets was calculated using the following formulae:

[2] = not given; remark: listed apart in the source
[3] = cited from earlier work
[4] = not given; remark: listed apart in the source

## CN1CCC[C@H]1c1cccnc1 [nicotine, (S)-3-(1-Methyl-2-pyrrolidinyl)pyridine]
pH 7
  nicotine molecules uncharged: approximately 10%
pH 10
  nicotine molecules uncharged: > 99% and ~100%
[1]
  effect of adding nicotine on droplet size: no major shift in droplet size
[2]; 1M NaCl
  enhancement of gaseous release of nicotine from the solution by salt: two-fold
[2]; 10% ethanol, FIG. 3.4
  reduction of nicotine gas release by ethanol (dynamic): 90%
[2]; decreasing pH from 8 to 3, FIG. 3.2
  effect of pH on nicotine gas release (dynamic): dramatically decreases
[2]; increasing NaCl from 0 to 1M, FIG. 3.3
  effect of NaCl on nicotine release in gas form (dynamic): dramatically increases
[3]; 25% of the average 1 mg of nicotine delivered by a cigarette
  nicotine in 5 litres of arterial blood: 30 to 60 ng/mL
[3]; smokers, typical
  time to peak nicotine concentration in arterial blood: 3 to 5 min
[4]; 20 mg/ml nicotine, 1% ethanol, FIG. 2.3
  reduction of nicotine in gas form at equilibrium by ethanol: 90%
[4]; decreasing pH from 10 to 3, FIG. 2.2
  effect of pH on amount of nicotine in gas form at equilibrium: dramatically decreases
[4]; higher salt concentrations
  effect of metal salt on amount of gaseous nicotine at equilibrium: larger amounts of gaseous nicotine
